Measured values: PubChem BioAssay (NCI)
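Cultured in 96-well plates, cells were exposed to test compound for 48 hours across five concentrations. At the TGI there is no net growth.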

Tests used:
Assay in all cases: DTP human tumour cell line panel, 48 h
[1] = test system: A549 NSCLC
[2] = test system: CAKI-1 renal
[3] = test system: COLO 205 colon
[4] = test system: DLD-1 colon
[5] = test system: DMS 114 small cell lung
[6] = test system: DMS 273 small cell lung
[7] = test system: EKVX NSCLC
[8] = test system: HCC-2998 colon
[9] = test system: HCT-15 colon
[10] = test system: HOP-18 NSCLC
[11] = test system: HT29 colon
[12] = test system: IGROV1 ovarian
[13] = test system: KM12 colon
[14] = test system: LOX IMVI melanoma
[15] = test system: M14 melanoma
[16] = test system: M19-MEL melanoma
[17] = test system: MALME-3M melanoma
[18] = test system: MOLT-4 leukemia
[19] = test system: NCI-H226 lung
[20] = test system: NCI-H23 lung
[21] = test system: NCI-H460 lung
[22] = test system: OVCAR-3 ovarian
[23] = test system: OVCAR-4 ovarian
[24] = test system: OVCAR-5 ovarian
[25] = test system: OVCAR-8 ovarian
[26] = test system: RXF 393 renal
[27] = test system: RXF-631 renal
[28] = test system: SF-295 CNS
[29] = test system: SF-539 CNS
[30] = test system: SK-MEL-2 melanoma
[31] = test system: SK-MEL-28 melanoma
[32] = test system: SK-MEL-5 melanoma
[33] = test system: SK-OV-3 ovarian
[34] = test system: SN12C renal
[35] = test system: SNB-19 CNS
[36] = test system: SNB-75 CNS
[37] = test system: SNB-78 CNS
[38] = test system: SR leukemia
[39] = test system: SW-620 colon
[40] = test system: TK-10 renal
[41] = test system: U251 CNS
[42] = test system: UACC-257 melanoma
[43] = test system: UACC-62 melanoma
[44] = test system: UO-31 renal
[45] = test system: XF 498 CNS
[46] = test system: 786-0 renal
[47] = test system: A498 renal
[48] = test system: ACHN renal
[49] = test system: BT-549 breast
[50] = test system: CCRF-CEM leukemia
[51] = test system: DU-145 prostate
[52] = test system: HCT-116 colon
[53] = test system: HL-60(TB) leukemia
[54] = test system: HOP-62 NSCLC
[55] = test system: HOP-92 NSCLC
[56] = test system: HS 578T breast
[57] = test system: K-562 leukemia
[58] = test system: KM20L2 colon
[59] = test system: LXFL 529 NSCLC
[60] = test system: MCF7 breast
[61] = test system: MDA-MB-231 breast
[62] = test system: MDA-MB-435
[63] = test system: MDA-N
[64] = test system: NCI-H522 lung
[65] = test system: NCI/ADR-RES ovarian
[66] = test system: PC-3 prostate
[67] = test system: RPMI-8226 leukemia
[68] = test system: SF-268 CNS
[69] = test system: T-47D breast

## c1cncc(O[Si](Oc2cccnc2)(Oc2cccnc2)Oc2cccnc2)c1
[1]
  TGI: > 100 µM
[2]
  TGI: > 100 µM
[3]
  TGI: > 100 µM
[4]
  TGI: > 100 µM
[5]
  TGI: > 100 µM
[6]
  TGI: > 100 µM
[7]
  TGI: > 100 µM
[8]
  TGI: > 100 µM
[9]
  TGI: > 100 µM
[10]
  TGI: > 100 µM
[11]
  TGI: > 100 µM
[12]
  TGI: > 100 µM
[13]
  TGI: > 100 µM
[14]
  TGI: > 100 µM
[15]
  TGI: > 100 µM
[16]
  TGI: > 100 µM
[17]
  TGI: > 100 µM
[18]
  TGI: > 100 µM
[19]
  TGI: > 100 µM
[20]
  TGI: > 100 µM
[21]
  TGI: > 100 µM
[22]
  TGI: > 100 µM
[23]
  TGI: > 100 µM
[24]
  TGI: > 100 µM
[25]
  TGI: > 100 µM
[26]
  TGI: > 100 µM
[27]
  TGI: > 100 µM
[28]
  TGI: > 100 µM
[29]
  TGI: > 100 µM
[30]
  TGI: > 100 µM
[31]
  TGI: > 100 µM
[32]
  TGI: > 100 µM
[33]
  TGI: > 100 µM
[34]
  TGI: > 100 µM
[35]
  TGI: > 100 µM
[36]
  TGI: > 100 µM
[37]
  TGI: > 100 µM
[38]
  TGI: > 100 µM
[39]
  TGI: > 100 µM
[40]
  TGI: > 100 µM
[41]
  TGI: > 100 µM
[42]
  TGI: > 100 µM
[43]
  TGI: > 100 µM
[44]
  TGI: > 100 µM
[45]
  TGI: > 100 µM

## CCOC(=O)c1oc2ccc([N+](=O)[O-])c3c2c1CCC3
[46]
  TGI: 84.9 µM
[47]
  TGI: > 100 µM
[1]
  TGI: > 100 µM
[48]
  TGI: > 100 µM
[49]
  TGI: > 93 µM
[2]
  TGI: > 77.5 µM
[50]
  TGI: > 100 µM
[3]
  TGI: > 100 µM
[4]
  TGI: > 100 µM
[5]
  TGI: > 100 µM
[6]
  TGI: > 100 µM
[51]
  TGI: > 100 µM
[7]
  TGI: > 100 µM
[8]
  TGI: > 100 µM
[52]
  TGI: > 100 µM
[9]
  TGI: > 100 µM
[53]
  TGI: > 100 µM
[10]
  TGI: > 100 µM
[54]
  TGI: 58.9 µM
[55]
  TGI: 71 µM
[56]
  TGI: > 85 µM
[11]
  TGI: > 100 µM
[12]
  TGI: > 100 µM
[57]
  TGI: > 100 µM
[13]
  TGI: > 100 µM
[58]
  TGI: > 100 µM
[14]
  TGI: > 88.1 µM
[59]
  TGI: > 100 µM
[15]
  TGI: > 100 µM
[16]
  TGI: > 100 µM
[17]
  TGI: > 100 µM
[60]
  TGI: > 100 µM
[61]
  TGI: > 100 µM
[62]
  TGI: > 55.5 µM
[63]
  TGI: > 100 µM
[18]
  TGI: > 100 µM
[19]
  TGI: > 100 µM
[20]
  TGI: > 100 µM
[21]
  TGI: > 100 µM
[64]
  TGI: > 85.2 µM
[65]
  TGI: > 100 µM
[22]
  TGI: > 100 µM
[23]
  TGI: > 100 µM
[24]
  TGI: > 100 µM
[25]
  TGI: > 100 µM
[66]
  TGI: > 100 µM
[67]
  TGI: > 100 µM
[26]
  TGI: 59.6 µM
[27]
  TGI: > 100 µM
[68]
  TGI: 72.2 µM
[28]
  TGI: 53.9 µM
[29]
  TGI: 39.7 µM
[30]
  TGI: > 100 µM
[31]
  TGI: > 100 µM
[32]
  TGI: > 100 µM
[33]
  TGI: > 46.3 µM
[34]
  TGI: > 100 µM
[35]
  TGI: > 89.6 µM
[36]
  TGI: 33.5 µM
[37]
  TGI: > 75 µM
[38]
  TGI: > 100 µM
[39]
  TGI: > 100 µM
[69]
  TGI: > 31.6 µM
[40]
  TGI: 85.9 µM
[41]
  TGI: 59.2 µM
[42]
  TGI: > 100 µM
[43]
  TGI: > 54.8 µM
[44]
  TGI: > 100 µM
[45]
  TGI: 41 µM
